# Source: PubChem BioAssay AID1963964 (Molecular Pharmacology Branch, DTP, NCI, 2024)
# Test system: 997726-040-R-J2-PDC tumor spheroids, viability
# Test: Anticancer human tumor 997726-040-R-J2-PDC patient-derived squamous cell lung carcinoma cell line growth inhibition [PI3K]
# Conditions: spheroids with HUVEC and MSC; for IC50: curve of first compound; for viability, T/C: stronger effect = lower value
# How it was run: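 Three cell types, namely tumor cells, endothelial cells and mesenchymal stem cells, formed each spheroid. Combinations with four PI3K inhibitors were screened at clinically achievable concentrations decreasing by half-log, and spheroid viability was recorded.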
# 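Further: spheroids exposed to compounds for seven days before readout.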
smiles,measurement,setting,value
Cn1cnc2c(F)c(Nc3ccc(Br)cc3Cl)c(C(=O)NOCCO)cc21 + COc1c(OCCCN2CCOCC2)ccc2c3n(c(=NC(=O)c4cnc(N)nc4)nc12)CCN3,IC50,second compound 0.00316 µM,46.1 nM
same,IC50,second compound 0.01 µM,< 9.49 nM
same,IC50,second compound 0.0316 µM,< 9.49 nM
same,IC50,second compound 0.1 µM,< 9.49 nM
same,IC50,second compound 0.316 µM,< 9.49 nM
same,IC50,second compound 1 µM,< 9.49 nM
same,"viability, T/C","second compound 0.00316 µM, first compound 0.00949 µM",60.5%
same,"viability, T/C","second compound 0.00316 µM, first compound 0.03 µM",55.1%
same,"viability, T/C","second compound 0.00316 µM, first compound 0.0949 µM",39.2%
same,"viability, T/C","second compound 0.00316 µM, first compound 0.3 µM",46.1%
same,"viability, T/C","second compound 0.00316 µM, first compound 0.949 µM",38%
same,"viability, T/C","second compound 0.00316 µM, first compound 3 µM",33.2%
same,"viability, T/C","second compound 0.01 µM, first compound 0.00949 µM",44.3%
same,"viability, T/C","second compound 0.01 µM, first compound 0.03 µM",43%
same,"viability, T/C","second compound 0.01 µM, first compound 0.0949 µM",39.1%
same,"viability, T/C","second compound 0.01 µM, first compound 0.3 µM",36.5%
same,"viability, T/C","second compound 0.01 µM, first compound 0.949 µM",28.6%
same,"viability, T/C","second compound 0.01 µM, first compound 3 µM",27.5%
same,"viability, T/C","second compound 0.0316 µM, first compound 0.00949 µM",36.6%
same,"viability, T/C","second compound 0.0316 µM, first compound 0.03 µM",33.4%
same,"viability, T/C","second compound 0.0316 µM, first compound 0.0949 µM",26.2%
same,"viability, T/C","second compound 0.0316 µM, first compound 0.3 µM",24.6%
same,"viability, T/C","second compound 0.0316 µM, first compound 0.949 µM",24.1%
same,"viability, T/C","second compound 0.0316 µM, first compound 3 µM",16.7%
same,"viability, T/C","second compound 0.1 µM, first compound 0.00949 µM",20.8%
same,"viability, T/C","second compound 0.1 µM, first compound 0.03 µM",20.8%
same,"viability, T/C","second compound 0.1 µM, first compound 0.0949 µM",15.6%
same,"viability, T/C","second compound 0.1 µM, first compound 0.3 µM",15.2%
same,"viability, T/C","second compound 0.1 µM, first compound 0.949 µM",14.7%
same,"viability, T/C","second compound 0.1 µM, first compound 3 µM",7.1%
same,"viability, T/C","second compound 0.316 µM, first compound 0.00949 µM",5.7%
same,"viability, T/C","second compound 0.316 µM, first compound 0.03 µM",5.13%
same,"viability, T/C","second compound 0.316 µM, first compound 0.0949 µM",2.49%
same,"viability, T/C","second compound 0.316 µM, first compound 0.3 µM",2.68%
same,"viability, T/C","second compound 0.316 µM, first compound 0.949 µM",1.51%
same,"viability, T/C","second compound 0.316 µM, first compound 3 µM",0.35%
same,"viability, T/C","second compound 1 µM, first compound 0.00949 µM",2.27%
same,"viability, T/C","second compound 1 µM, first compound 0.03 µM",1.05%
same,"viability, T/C","second compound 1 µM, first compound 0.0949 µM",0.66%
same,"viability, T/C","second compound 1 µM, first compound 0.3 µM",0.55%
same,"viability, T/C","second compound 1 µM, first compound 0.949 µM",0.39%
same,"viability, T/C","second compound 1 µM, first compound 3 µM",0.27%
CNC(=O)c1ccc(N2C(=S)N(c3ccc(C#N)c(C(F)(F)F)c3)C(=O)C2(C)C)cc1F + CC(Nc1ncnc2nc[nH]c12)c1cc2cccc(Cl)c2c(=O)n1-c1ccccc1,IC50,second compound 0.0316 µM,> 10000 nM
same,IC50,second compound 0.1 µM,> 10000 nM
same,IC50,second compound 0.316 µM,> 10000 nM
same,IC50,second compound 1 µM,> 10000 nM
same,IC50,second compound 3.16 µM,> 10000 nM
same,IC50,second compound 10 µM,> 10000 nM
same,"viability, T/C","second compound 0.0316 µM, first compound 0.0316 µM",88.7%
same,"viability, T/C","second compound 0.0316 µM, first compound 0.1 µM",97.8%
same,"viability, T/C","second compound 0.0316 µM, first compound 0.316 µM",115%
same,"viability, T/C","second compound 0.0316 µM, first compound 1 µM",90.4%
same,"viability, T/C","second compound 0.0316 µM, first compound 3.16 µM",102%
same,"viability, T/C","second compound 0.0316 µM, first compound 10 µM",86.7%
same,"viability, T/C","second compound 0.1 µM, first compound 0.0316 µM",98%
same,"viability, T/C","second compound 0.1 µM, first compound 0.1 µM",93.6%
same,"viability, T/C","second compound 0.1 µM, first compound 0.316 µM",97%
same,"viability, T/C","second compound 0.1 µM, first compound 1 µM",107%
same,"viability, T/C","second compound 0.1 µM, first compound 3.16 µM",104%
same,"viability, T/C","second compound 0.1 µM, first compound 10 µM",92.4%
same,"viability, T/C","second compound 0.316 µM, first compound 0.0316 µM",104%
same,"viability, T/C","second compound 0.316 µM, first compound 0.1 µM",109%
same,"viability, T/C","second compound 0.316 µM, first compound 0.316 µM",101%
same,"viability, T/C","second compound 0.316 µM, first compound 1 µM",99.2%
same,"viability, T/C","second compound 0.316 µM, first compound 3.16 µM",104%
same,"viability, T/C","second compound 0.316 µM, first compound 10 µM",90.2%
same,"viability, T/C","second compound 1 µM, first compound 0.0316 µM",96.7%
same,"viability, T/C","second compound 1 µM, first compound 0.1 µM",86.6%
same,"viability, T/C","second compound 1 µM, first compound 0.316 µM",78.7%
same,"viability, T/C","second compound 1 µM, first compound 1 µM",85%
same,"viability, T/C","second compound 1 µM, first compound 3.16 µM",89%
same,"viability, T/C","second compound 1 µM, first compound 10 µM",86.9%
same,"viability, T/C","second compound 3.16 µM, first compound 0.0316 µM",71%
same,"viability, T/C","second compound 3.16 µM, first compound 0.1 µM",73.8%
same,"viability, T/C","second compound 3.16 µM, first compound 0.316 µM",72.6%
same,"viability, T/C","second compound 3.16 µM, first compound 1 µM",80%
same,"viability, T/C","second compound 3.16 µM, first compound 3.16 µM",80.3%
same,"viability, T/C","second compound 3.16 µM, first compound 10 µM",66.2%
same,"viability, T/C","second compound 10 µM, first compound 0.0316 µM",59.5%
same,"viability, T/C","second compound 10 µM, first compound 0.1 µM",53.9%
same,"viability, T/C","second compound 10 µM, first compound 0.316 µM",50.6%
same,"viability, T/C","second compound 10 µM, first compound 1 µM",48%
same,"viability, T/C","second compound 10 µM, first compound 3.16 µM",54.4%
same,"viability, T/C","second compound 10 µM, first compound 10 µM",50%
